Data from patent publication US20080063601A1, “Compositions and methods relating to polycystic kidney disease” (priority 2004, published 2008).
Read-outs that look alike come from different tables or passages of the source.

What was measured:
HeLa cells [1] = assay: [3H]-triptolide labeling followed by cellular fractionation; format: binding
Description: To address first the nature of triptolide binding within the cell, Applicant determined this interaction was reversible as [^3H]-triptolide labeling was out competed by subsequent addition of excess unlabeled triptolide (FIG. 4A). […] Although 25% of the total cellular counts (i.e., representing bound triptolide) were found in the cytosolic fraction, it is uncertain whether this is specific binding or simply that free triptolide had dissociated from its binding protein due to experimental manipulation during fractionation. Since the data thus far had only shown binding within whole cells, Applicant next determined if this triptolide binding protein could be further characterized and/or enriched by its association with chromatographic reagents. HeLa cells were once again labeled with [^3H]-triptolide and total cell lysates were then passed over the anion exchange resin DEAE. […] Importantly, Applicant also observed that [^3H]-triptolide would only bind to intact cells in culture but would not bind to any component of a total cellular lysate as assessed by interaction with the DEAE resin. […]
For cellular fractionation studies, cells were allowed to swell on ice and lysed by passage through a syringe in a hypotonic lysis buffer (10 mM Tris-HCl+complete protease inhibitors). […] Gel slices were measured out in equal increments and the molecular weight range of each was calculated. […]

HeLa cells [2] = assay: [3H]-triptolide binding in presence or absence of extracellular calcium
Description: To understand further the nature of triptolide's interaction within the cell, Applicant altered cell culture conditions to examine if [^3H]-triptolide binding would be affected. […] Additionally, it has been established that aberrant calcium signaling can result in cell death (Rizzuto, et al., 2003, Oncogene 22, 8619-8627; Orrenius, et al., 2003, Nat Rev Mol Cell Biol 4, 552-565). Due to triptolide's own link with NFκB and NF-AT and its propensity to induce cell death, Applicant assessed whether triptolide binding could be modulated by free calcium levels. Adherent HeLa cells were cultured in the presence or absence of calcium containing medium for 16 hours before [^3H]-triptolide addition. […] It is also noteworthy that an increase in cell density (not cell number) also increases triptolide binding regardless of calcium levels. Additionally, specific calcium chelation by 10 mM EGTA for one hour in calcium containing medium increased binding by nearly 2 fold.
Labeling studies were performed by the addition of approximately 30 nM [^3H]-triptolide directly into the culture media for one hour at 37° C. […] Total cell lysates were prepared (150 mM NaCl, 50 mM Tris-HCl pH 7.4, 1 mM EDTA, 1% Triton X-100, and Complete™ protease inhibitors (Roche)) and protein was quantitated before measuring the [^3H]-triptolide binding activity via liquid scintillation.

[3] = system: Pkd1^−/− murine kidney epithelial cells; assay: Growth, p21 and active caspase-3 in Pkd1−/− kidney epithelial cells; format: cell-based; conditions: 100 nM
Experimental: Total cell lysates (0.5% Triton X-100, 50 mM Tris pH 7.4, 150 mM NaCl, […]) were prepared for Western blot analysis and samples were run out by SDS-PAGE as per manufacturers' protocols. Brightfield images of cells were taken using a 10× or 40× objective. Confocal microscopy (40×) was used for immunofluorescence imaging of polycystin-2.
Calcium response to triptolide was, thus, shown to be dependent on polycystin-2. The biological response to calcium flux was next assessed in the murine Pkd1^−/− cell line, by adding 100 nM triptolide to the cultured cells and observing cell growth over time. Within the first 24 hours of culture, a minimal number of detached cells was observed. […] In the absence of triptolide, this cell line underwent a population doubling every 48 hours. […] It is possible that additional signaling pathways are activated by triptolide when Pkd1 is expressed. […] Therefore, Applicant assessed whether the inhibition of proliferation observed was due to p21 re-expression upon triptolide treatment.

Pkd2^+/− cells = assay: Viability of Pkd2+/− kidney epithelial cells; format: cell-based, murine; conditions: Pkd2+/− cells (one copy each of Pkd1 and Pkd2), 100 nM
[4] = system: Pkd1^−/− murine model of polycystic kidney disease; format: in vivo, mice; conditions: for Alive Pkd1^−/− (birth): 0.07 mg/kg/day i.p. to pregnant mice; for Alive Pkd1^−/− (birth) / Ave. kidney wet weight Pkd1^−/−: E10.5 until birth; for Ave. kidney wet weight Pkd1^−/−: 0.07 mg/kg/day i.p.
Experimental: As per approved IACUC animal protocol, Pkd1^+/−/Pkd1^+/− mice were mated and pregnant mice were divided into control (DMSO) or experimental (triptolide) groups. A total volume of 100 μl of PBS with no more than 5% DMSO or DMSO/0.07 mg/kg/day triptolide was injected i.p. with a 28 G ½ insulin syringe. Mice were weighed and injected starting at E10.5 until birth. All pups were examined for length and developmental staging such as whisker formation. Kidneys were harvested, weighed, and fixed in 4% paraformaldehyde before histological preparation.
Kidneys were prepared by sagittal cross-sectioning and hematoxylin and eosin staining. All kidneys were photographed under the same magnification (4×) and cystic burden was computed using Image J analysis software (NIH). The area of cysts within the total area of the kidney (pixels) was calculated as a final percentage of cystic burden in the kidney. Immunohistochemical analysis of active caspase-3 was completed as per manufacturer's protocol.
Following successful Pkd1^+/− Pkd1^+/− matings, 0.07 mg/kg/day of triptolide or DMSO control was injected i.p. into pregnant mice until they gave birth. All pups were assessed for viability, length, developmental staging, and wet kidney weight. A total of 59 pups from DMSO treated females and 100 pups from triptolide treated females were examined for multiple parameters, such as genotypic distribution, developmental stage at time of birth, and average kidney weights (Table 1). […] Approximately 20% of all Pkd1^−/− mice were born alive from each treatment group. However, severe edematous abnormalities were obvious upon necropsy.

[5] = Pkd1^−/− pups, 0.07 mg/kg/day i.p. during gestation

`CC(C)[C@]12O[C@H]1[C@@H]1O[C@]13[C@]1(O[C@H]1C[C@H]1C4=C(CC[C@@]13C)C(=O)OC4)[C@@H]2O` [triptolide] was tested, and the “cellular fraction that binds [3H]-triptolide” value (HeLa cells [1]; S-100, P-100, insoluble fractions) was “predominantly to the membrane fraction (P-100)”, the “total cellular counts (bound triptolide) found in the cytosolic fraction” value (HeLa cells [1]; S-100 fraction) was 25% and the “increase of [3H]-triptolide binding on calcium chelation” value (HeLa cells [2]; 10 mM EGTA 1 h in calcium containing medium) was ~2 fold. For the same compound, the “increase of [3H]-triptolide binding in absence of extracellular calcium” value (HeLa cells [2]; calcium-free medium 16 h before [3H]-triptolide) was 2-4 fold, the “active caspase-3 (western blot)” value [3] was “failed to implicate triptolide induced apoptosis” and the “p21 expression (western blot)” value ([3]; 96 hour time course) was “upregulated”. The cell growth ([3]; over 96 hours) was “growth arrested”, the cell viability (Pkd2^+/− cells) was “rapid cell death within 24 hours” and the “Alive Pkd1^−/− (birth)” value [4] was “Approximately 20%”. For the same compound, the “Alive Pkd1^−/− (birth)” value ([4]; listed as Triptolide) was 4 (22%), the “Ave. kidney wet weight Pkd1^−/−” value ([4]; mean ± SE) was 24.6 ± 0.8 mg and the “Ave. kidney wet weight Pkd1^−/−” value ([4]; mean ± SE, listed as Triptolide) was 21.8 ± 2.8 mg. For the same compound, the “active caspase-3 immunoreactivity in kidney sections” value ([4]; Pkd1^−/− kidneys, 0.07 mg/kg/day i.p. during gestation) was “did not show any significant activation of the caspase pathway”, the “diameter of cyst lumens on average” value [4, 5] was “smaller” and the maximum cyst burden [4, 5] was 25%. For the same compound, the “cystic burden (cyst area as percentage of total kidney area), average” value ([4]; Pkd1^−/− pups, 0.07 mg/kg/day i.p. during gestation, mean ± SE) was 15±2.1% and the “wet kidney weight or overall size of Pkd1^+/+ or Pkd1^+/− mice versus DMSO” value ([4]; mouse, in vivo) was “no significant difference”.
